Data taken from patent US11339203B2, “Antitumor peptide and use thereof” (TOAGOSEI CO., LTD., priority 2018, dated 2022).
Like-named read-outs stand apart in the source and are kept apart here. Where no end group is shown, it is not given here.

Legend:
[1] = tested on: human kidney cancer cell line (CAKI2); assay type: cell-based; details: human, 48 h
Description: The antitumor activity of each sample peptide synthesized in above-mentioned Test Example 1 was evaluated targeted in human-derived cultured tumor cells. More specifically, a human kidney cancer cell line (CAKI2) that is currently commercially available was used for the test tumor cells. CAKI2 cells were cultured and adjusted to cell count of about 5×10^3 cells per single well of 96-well plate. The amount of medium at this time was made to be 100 μL per well. Next, the 96-well plate was arranged in a CO2 incubator and incubated for about 1 day (21 hours to 24 hours) under conditions of 37° C. and 5% CO2. Subsequently, peptide-containing test media were respectively prepared for each concentration so that the concentration of each sample peptide targeted for evaluation was 12.5 μM and 25 μM followed by supplying to the wells in which the cells targeted for evaluation were cultured (namely, the wells following the above-mentioned incubation) so that the amount of media was 90 μL per well. The 96-well plate was then returned to CO2 incubator followed by incubating for 48 hours under conditions of 37° C. and 5% CO2. The number of wells (n) at each concentration in each peptide addition test group was set to 3. Thus, the values of the results indicated in the following table are the average values of the results respectively obtained for 3 test wells. Cell viability (%) was determined in the manner described below. Following completion of incubation for 48 hours as described above, the medium in each well was replaced with 100 μL of fresh medium not containing peptide followed by further adding a reagent for measuring cell proliferation in the form of “Cell Counting Kit-8” (Dojindo Laboratories) containing “water-soluble tetrazolium salt (WST-8)” as a coloring reagent at 10 μL per well. Subsequently, the 96-well plate was again returned to CO2 incubator and incubated for 1.5 hours to 2 hours under conditions of 37° C. and 5% CO2. Following completion of incubation, cell viability (%) was evaluated using a colorimetric method consisting of recovering the cell culture liquid containing the above-mentioned reagent together with measuring absorbance at wavelength of 450 nm based on reduction of tetrazolium salt (value corrected for absorbance at a wavelength of 650 nm: A450 to A650). More specifically, the cell viability (%) of each test cell line was calculated from the measured absorbance as a relative value based on cell viability of 100% for the measured value (measured absorbance) of the comparison test group that underwent incubation for 48 hours as described above in only medium not containing peptide. McCoy's 5A medium (Gibco) containing 2 mM L-glutamine, 3,000 mg/L of glucose, 100 units/mL of penicillin, 100 μg/mL of streptomycin and 10% fetal bovine serum (FBS).

tumor cells = experiment: Antitumor activity of the TM2-TAT peptide (data not shown); assay type: cell-based; details: detailed data not shown

Row | Compound | Cell Viability (%) ([1]; 12.5 μM) | Cell Viability (%) ([1]; 25 μM) | antitumor activity (tumor cells)
1 | CC[C@H](C)[C@H](NC(=O)[C@H](CCCNC(=N)N)NC(=O)[C@H](CS)NC(=O)[C@H](Cc1ccc(O)cc1)NC(=O)[C@H](CC(C)C)NC(=O)[C@@H](NC(=O)[C@@H](NC(=O)[C@@H](NC(=O)[C@H](CO)NC(=O)[C@H](CC(C)C)NC(=O)[C@H](CC(C)C)NC(=O)[C@H](CC(C)C)NC(=O)[C@H](CC(C)C)NC(=O)[C@@H](NC(=O)[C@H](Cc1ccccc1)NC(=O)[C@@H](NC(=O)[C@@H](NC(=O)[C@@H](NC(=O)[C@H](CS)NC(=O)[C@H](Cc1ccccc1)NC(=O)[C@H](CC(C)C)NC(=O)[C@@H](NC(=O)[C@H](Cc1ccc(O)cc1)NC(=O)[C@H](Cc1c[nH]cn1)NC(=O)[C@H](CCCCN)NC(=O)[C@H](Cc1c[nH]cn1)NC(=O)[C@H](Cc1ccc(O)cc1)NC(=O)[C@@H](N)CC(C)C)[C@@H](C)CC)[C@@H](C)O)[C@@H](C)O)C(C)C)[C@@H](C)O)[C@@H](C)CC)C(C)C)[C@@H](C)CC)C(=O)N[C@@H](CCCCN)C(=O)N[C@@H](CCCCN)C(=O)N[C@@H](CCCNC(=N)N)C(=O)N[C@H](C(=O)N[C@@H](CC(C)C)C(=O)N[C@@H](CCCNC(=N)N)C(=O)N[C@@H](CCCCN)C(=O)N[C@@H](CC(N)=O)C(=O)N[C@@H](CC(=O)O)C(=O)N[C@@H](CCCNC(=N)N)C(=O)N[C@@H](CCCCN)C(=O)N[C@@H](CCCCN)C(=O)N[C@@H](CCCNC(=N)N)C(N)=O)[C@@H](C)O [Sample 5] | 73.3 | 77.6 | 
2 | FLLISACWVISLILGGLPIMGWKKRTLRKNDRKKR-NH2 [Sample 4] | 70.6 | 85.6 | 
3 | LFRAEYFLVLAVLNSGTNPIIKKRTLRKNDRKKR-NH2 [Sample 7] | 98.9 | 66.3 | 
4 | SEQ ID NO: 33: synthetic peptide binding SEQ ID NO: 23 (TAT sequence of HIV) to the C-terminal side of SEQ ID NO: 2 (S1PR1 second TM region) (FIGNLALSDLLAGVAYTANLLLRKKRRQRRR) |  |  | demonstrated antitumor activity
5 | VIIVLSVFIACWAPLFILLLLKKRTLRKNDRKKR-NH2 [Sample 6] | 69.3 | 59.7 | 
6 | WFLREGSMFVALSASVFSLLAIKKRTLRKNDRKKR-NH2 [Sample 3] | 68 | 45.8 | 
